Measurements as given in US20080020385A1, “Use Of A Genetic Modification In The Human Gnaq Gene For Predicting Risk Of Disease, The Course Of Disease, And Reaction To Treatments” (priority 2004, published 2008).

Tests used:
skin blood circulation = experiment: Change of skin blood circulation after injection of vasoconstrictors under the skin; format: in vivo; details: injected under the skin of human individuals, by GC(-909/-908)TT genotype
Protocol: As an example for the general usability of the GNAQ GC(−909/−908)TT polymorphism to predict drug actions, the vasoconstrictors angiotensin II, noradrenaline or endothelin were injected under the skin of human individuals, and the following change of blood circulation was recorded (FIG. 18).

GNAQ promoter = experiment: SEAP reporter assay of GNAQ promoter construct -798/+89 (GC or TT genotype) in stimulated HEK cells; format: cell-based, human; details: construct -798/+89, stimulation with 10 nM angiotensin II, p<0.05
Text: For functional detection of a modified promoter activity in relation to specific genotypes, various fragments of the promoter with the GC or the TT genotype were cloned into the pSEAP vector to quantify the promoter activity after expression of the vector in HEK cells in a so-called reporter assay (FIG. 5). For this assay, constructs are cloned before a gene encoding the secreted alkaline phosphatase (SEAP). If the construct has promoter activity, the SEAP gene will be transcribed more, and the increased secretion of alkaline phosphatase into the cell culture medium can be measured. […] Since the polymorphism is located in this region (−697/−695 relative from the transcription starting point) showing the highest reporter activity, and furthermore a transcription factor binding site is influenced by the nucleic acid exchange, it is now studied if stimulation of HEK cells has an effect on the reporter activity of these constructs. For this, construct −798/+89 was transfected into HEK cells, together with either the GC(−909/−908) or the TT(−909/−908) polymorphism, and the cells were stimulated with serum or angiotensin II (FIG. 6). […] In order to verify if this regulation also occurs in vivo, Gαq expression was analyzed on mRNA level by real time-PCR.

human adipocytes = experiment: Inhibition of isoprenaline-induced lipolysis (glycerol release) in human adipocyte cultures; format: cell-based; details: human adipocytes ex vivo, by GC(-909/-908)TT genotype
Text: The inhibiting effect of insulin on lipolysis was studied in human adipocyte cultures. For this, lipolysis was induced ex vivo in human adipocytes by isoprenaline, and the inhibiting effect of insulin was studied by adding insulin to the cultures. Lipolysis was quantified by glycerol release (Hauner et al., 2002). […] This coincides with the observation of an increased gene expression of Gq in this genotype.

Molecule | reduction of skin blood circulation (skin blood circulation) | promoter activity (secreted alkaline phosphatase), GC genotype compared to TT genotype (GNAQ promoter) | inhibiting effect on isoprenaline-induced lipolysis (glycerol release) (human adipocytes)
CC[C@H](C)[C@H](NC(=O)[C@H](CC(=O)O)NC(=O)[C@H](CC(C)C)NC(=O)[C@H](Cc1c[nH]cn1)NC(=O)[C@@H]1CSSC[C@H](N)C(=O)N[C@@H](CO)C(=O)N[C@H]2CSSC[C@H](NC(=O)[C@H](CCC(=O)O)NC(=O)[C@H](CCCCN)NC(=O)[C@H](CC(=O)O)NC(=O)[C@H](CCSC)NC(=O)[C@H](CC(C)C)NC(=O)[C@H](CO)NC(=O)[C@H](CO)NC2=O)C(=O)N[C@@H](C(C)C)C(=O)N[C@@H](Cc2ccc(O)cc2)C(=O)N[C@@H](Cc2ccccc2)C(=O)N1)C(=O)N[C@H](C(=O)N[C@@H](Cc1c[nH]c2ccccc12)C(=O)O)[C@@H](C)CC [endothelin] | reduction of skin blood circulation is highest for the GC/GC genotype | – | –
angiotensin II (DRVYIHPF; Angiotensin-2; UniProt P01019 25-32, looked up) [hormone, vasoconstrictor] | reduction of skin blood circulation is highest for the GC/GC genotype | two to four times increased promoter activity compared to the TT genotype | –
insulin | – | – | inhibiting insulin effect was strongest with adipocytes from individuals with GCGC genotype
NC[C@H](O)c1ccc(O)c(O)c1 [noradrenaline] | reduction of skin blood circulation is highest for the GC/GC genotype | – | –
